Data from paper PMC7932537, “Quantitative profiling of protease specificity” (PLoS Computational Biology, 2021).

Key:
MMP-9 = test: Substrate phage display with NGS: relative probability (RP) of P3-P1' tetramer clusters; type: biochemical, human; settings: for corresponding MMP9 relative probability (RP): MMP2 tetramers from unique substrates, RP of same tetramer for MMP9
MMP-2 = test: as above; type: biochemical, human; settings: for MMP2 relative probability (RP): MMP2 tetramers from unique substrates, unrounded values; for avg_RP: MMP2 - no binning; for relative probability (RP) of matching tetramer: P3-P1' tetramer matching the MS detected MMP2 cleavage sequence, RP_above_4.5
[1] = RP of the P3-P1' tetramer, MMP9 substrate phage display/NGS, tetramers of physiologic MEROPS substrates common to MMP2 and MMP9
[2] = RP of the P3-P1' tetramer, MMP2 substrate phage display/NGS, tetramers of physiologic MEROPS substrates common to MMP2 and MMP9
[3] = MMP9, RP of the P3-P1' tetramer contained in the hexamer substrate (substrate phage display, NGS)
[4] = RP of the P3-P1' tetramer cluster contained in the hexamer, 200 nM MMP-2, 2 h, 37°C, two rounds of selection
[5] = RP according to MMP2, P3-P1' tetramer of unique physiologic MMP2 substrates from MEROPS
[6] = average relative probability of the tetramer, redundant tetramers averaged out
[7] = MMP9, RP of matching P3-P1' tetramer, common set of MMP2-9 selectome
[8] = MMP9, RP of the P3-P1' tetramer matching the MS detected cleavage, RP above 4.7, substrate phage display with NGS
[9] = RP of matching tetramer, common MMP2-9 selectome, RP above KL threshold
[10] = MMP2, RP of matching P3-P1' tetramer, common set of MMP2-9 selectome, RP above KL threshold
[11] = RP of matching tetramer, common MMP2-9 selectome
[12] = average relative probability (RP) of the P3-P1' tetramer, redundant tetramers have been averaged out

Q: How did the “relative probability (RP) (acc.to MMP9)” value (MMP-9; [1]) turn out when GSSY was run?
A: 0.37

Q: And the “relative probability (RP) (acc.to MMP2)” value (MMP-2; [2])?
A: 0.73

Q: What does the source list for GPAGIR?
A: relative probability (RP) (MMP-9; [3]): 45.1083; relative probability (RP) (MMP-2; [4]): 33.3207

Q: How did the “relative probability (RP)” value (MMP-9; [3]) turn out when NPQNIR was run?
A: 44.0295

Q: What about the “relative probability (RP)” value (MMP-2; [4]) of the same substance?
A: 27.128

Q: With PIQLQS as the substance, how does the “relative probability (RP)” value (MMP-9; [3]) read?
A: 35.2784

Q: And the “relative probability (RP)” value (MMP-2; [4])?
A: 19.2979

Q: Which results are given for QPPLPL?
A: relative probability (RP) (MMP-9; [3]): 49.0268; relative probability (RP) (MMP-2; [4]): 35.0814

Q: How did the “relative probability (RP)” value (MMP-9; [3]) turn out when HPVSMV was run?
A: 41.2029

Q: And the “relative probability (RP)” value (MMP-2; [4])?
A: 30.0644

Q: For LGRF, which “corresponding MMP9 relative probability (RP)” value (MMP-9) is on record?
A: 1.477

Q: And the “MMP2 relative probability (RP)” value (MMP-2)?
A: 13.9898

Q: What about the “Relative probability (RP) rank” value (MMP-2; [5]) of the same substance?
A: 3427

Q: And the “relative probability (RP)” value (MMP-2; [5])?
A: 13.99

Q: PMAM [P3-P1' tetramer cluster] was tested. Which “relative probability (RP)” value (MMP-9; tetramer probability in MMP9 set / naive library, 200 nM protease, 2 h, 37°C) did it give?
A: 51.1831

Q: And the avg_RP (MMP-2; [6])?
A: 30.2676

Q: LSPFGQ was tested. Which “relative probability (RP)” value (MMP-9; [3]) did it give?
A: 36.0266

Q: What about the “relative probability (RP)” value (MMP-2; [4]) of the same substance?
A: 16.8686

Q: For PVNMTD, which “relative probability (RP)” value (MMP-9; [3]) is on record?
A: 44.4072

Q: What about the “relative probability (RP)” value (MMP-2; [4]) of the same substance?
A: 30.0312

Q: Which results are given for PRFL?
A: relative probability (RP) (acc.to MMP9) (MMP-9; [7]): 42.45; relative probability (RP) (MMP-9; [8]): 42.45; relative probability (RP) (acc.to MMP9) (MMP-9; [9]): 42.45; avg_RP (MMP-2; [6]): 28.4443; relative probability (RP) (acc.to MMP2) (MMP-2; [10]): 28.44; relative probability (RP) of matching tetramer (MMP-2): 28.44; relative probability (RP) (acc.to MMP2) (MMP-2; [11]): 28.44

Q: Which “relative probability (RP) (acc.to MMP9)” value (MMP-9; [7]) does the source give for IANL here?
A: 21.07

Q: And the “relative probability (RP)” value (MMP-9; [8])?
A: 21.07

Q: And the “relative probability (RP) (acc.to MMP9)” value (MMP-9; [9])?
A: 21.07

Q: And the avg_RP (MMP-2; [12])?
A: 33.8805

Q: And the “relative probability (RP) (acc.to MMP2)” value (MMP-2; [10])?
A: 33.88

Q: What about the “relative probability (RP) of matching tetramer” value (MMP-2) of the same substance?
A: 33.88

Q: What about the “relative probability (RP) (acc.to MMP2)” value (MMP-2; [11]) of the same substance?
A: 33.88

Q: Which results are given for IGNM?
A: relative probability (RP) (acc.to MMP9) (MMP-9; [7]): 9.58; relative probability (RP) (acc.to MMP2) (MMP-2; [10]): 29.21; relative probability (RP) of matching tetramer (MMP-2): 29.21

Q: PGEI was tested. Which “relative probability (RP) (acc.to MMP9)” value (MMP-9; [7]) did it give?
A: 12.83

Q: What about the “relative probability (RP)” value (MMP-9; [8]) of the same substance?
A: 12.83

Q: What about the “relative probability (RP) (acc.to MMP9)” value (MMP-9; [9]) of the same substance?
A: 12.83

Q: And the “relative probability (RP) (acc.to MMP2)” value (MMP-2; [10])?
A: 14.72

Q: What about the “relative probability (RP) of matching tetramer” value (MMP-2) of the same substance?
A: 14.72

Q: What about the “relative probability (RP) (acc.to MMP2)” value (MMP-2; [11]) of the same substance?
A: 14.72

Q: Which results are given for PVSL?
A: relative probability (RP) (acc.to MMP9) (MMP-9; [1]): 42.36; relative probability (RP) (acc.to MMP2) (MMP-2; [2]): 32.5

Q: For VGEY, which “corresponding MMP9 relative probability (RP)” value (MMP-9) is on record?
A: 0.1188

Q: What about the “MMP2 relative probability (RP)” value (MMP-2) of the same substance?
A: 13.6759

Q: And the “Relative probability (RP) rank” value (MMP-2; [5])?
A: 3547

Q: And the “relative probability (RP)” value (MMP-2; [5])?
A: 13.68

Q: PVAIPM was tested. Which “relative probability (RP)” value (MMP-9; [3]) did it give?
A: 44.9732

Q: And the “relative probability (RP)” value (MMP-2; [4])?
A: 32.4892

Q: Which “relative probability (RP) (acc.to MMP9)” value (MMP-9; [1]) does the source give for VTPR here?
A: 0.46

Q: What about the “relative probability (RP) (acc.to MMP2)” value (MMP-2; [2]) of the same substance?
A: 0.18

Q: Which “relative probability (RP) (acc.to MMP9)” value (MMP-9; [7]) does the source give for PSKL here?
A: 38.96

Q: What about the “relative probability (RP)” value (MMP-9; [8]) of the same substance?
A: 38.96

Q: What about the “relative probability (RP) (acc.to MMP9)” value (MMP-9; [9]) of the same substance?
A: 38.96

Q: And the avg_RP (MMP-2; [12])?
A: 32.2205

Q: And the “relative probability (RP) (acc.to MMP2)” value (MMP-2; [10])?
A: 32.22

Q: And the “relative probability (RP) of matching tetramer” value (MMP-2)?
A: 32.22

Q: What about the “relative probability (RP) (acc.to MMP2)” value (MMP-2; [11]) of the same substance?
A: 32.22

Q: What does the source list for PYGIKG?
A: relative probability (RP) (MMP-9; [3]): 49.5245; relative probability (RP) (MMP-2; [4]): 28.2788

Q: Which results are given for AMFL?
A: MMP9 relative probability (RP) (MMP-9; MMP9 tetramers from unique substrates, unrounded values): 1.089; corresponding MMP2 relative probability (RP) (MMP-2; MMP9 tetramers from unique substrates, RP of same tetramer for MMP2): 15.1166

Q: With LAGL [P3-P1' tetramer cluster] as the substance, how does the “corresponding MMP9 relative probability (RP)” value (MMP-9) read?
A: 1.413

Q: And the “MMP2 relative probability (RP)” value (MMP-2)?
A: 32.2383

Q: And the “Relative probability (RP) rank” value (MMP-2; [5])?
A: 174

Q: And the “relative probability (RP)” value (MMP-2; [5])?
A: 32.24

Q: What about the relative_probability (MMP-2; tetramer clusters unique to the MMP-2 selectome, MMP-2 RP) of the same substance?
A: 32.24

Q: Which results are given for NVARPM?
A: relative probability (RP) (MMP-9; [3]): 34.8794; relative probability (RP) (MMP-2; [4]): 21.8664

Q: Which results are given for MASQ?
A: corresponding MMP9 relative probability (RP) (MMP-9): 0; MMP2 relative probability (RP) (MMP-2): 16.7049; Relative probability (RP) rank (MMP-2; [5]): 2583; relative probability (RP) (MMP-2; [5]): 16.7

Q: For AAAI, which “relative probability (RP) (acc.to MMP9)” value (MMP-9; [7]) is on record?
A: 15.73

Q: What about the “relative probability (RP) (acc.to MMP2)” value (MMP-2; [10]) of the same substance?
A: 25.49

Q: And the “relative probability (RP) of matching tetramer” value (MMP-2)?
A: 25.49

Q: What does the source list for IAFL?
A: relative probability (RP) (acc.to MMP9) (MMP-9; [7]): 10.97; relative probability (RP) (acc.to MMP2) (MMP-2; [10]): 22.55; relative probability (RP) of matching tetramer (MMP-2): 22.55

Q: What does the source list for TQPKAM?
A: relative probability (RP) (MMP-9; [3]): 48.8005; relative probability (RP) (MMP-2; [4]): 31.5595

Q: With PAVM as the substance, how does the “corresponding MMP9 relative probability (RP)” value (MMP-9) read?
A: 4.1214

Q: What about the “MMP2 relative probability (RP)” value (MMP-2) of the same substance?
A: 17.6491

Q: What about the “Relative probability (RP) rank” value (MMP-2; [5]) of the same substance?
A: 2339

Q: And the “relative probability (RP)” value (MMP-2; [5])?
A: 17.65

Q: Which “relative probability (RP)” value (MMP-9; [3]) does the source give for KSPSRL here?
A: 39.8157

Q: What about the “relative probability (RP)” value (MMP-2; [4]) of the same substance?
A: 31.7732

Q: What does the source list for RGEL?
A: corresponding MMP9 relative probability (RP) (MMP-9): 0.3681; MMP2 relative probability (RP) (MMP-2): 14.9989; Relative probability (RP) rank (MMP-2; [5]): 3096; relative probability (RP) (MMP-2; [5]): 15
